Earlier results in US7786168B2, “Phenolic acid salts of gabapentin in solid dosage forms and methods of use” (Kiel Laboratories, Inc., priority 2003, dated 2010).

Experiments:
[1] = in water and across a wide range of pH
[2] = molecular target: gb1a-gb^2 heterodimer and post-synaptic GABAB receptor (Homo sapiens, UniProt Q9UBS5)
Chain of gb1a-gb^2 heterodimer and post-synaptic GABAB receptor (Q9UBS5 15-961 limits assumed): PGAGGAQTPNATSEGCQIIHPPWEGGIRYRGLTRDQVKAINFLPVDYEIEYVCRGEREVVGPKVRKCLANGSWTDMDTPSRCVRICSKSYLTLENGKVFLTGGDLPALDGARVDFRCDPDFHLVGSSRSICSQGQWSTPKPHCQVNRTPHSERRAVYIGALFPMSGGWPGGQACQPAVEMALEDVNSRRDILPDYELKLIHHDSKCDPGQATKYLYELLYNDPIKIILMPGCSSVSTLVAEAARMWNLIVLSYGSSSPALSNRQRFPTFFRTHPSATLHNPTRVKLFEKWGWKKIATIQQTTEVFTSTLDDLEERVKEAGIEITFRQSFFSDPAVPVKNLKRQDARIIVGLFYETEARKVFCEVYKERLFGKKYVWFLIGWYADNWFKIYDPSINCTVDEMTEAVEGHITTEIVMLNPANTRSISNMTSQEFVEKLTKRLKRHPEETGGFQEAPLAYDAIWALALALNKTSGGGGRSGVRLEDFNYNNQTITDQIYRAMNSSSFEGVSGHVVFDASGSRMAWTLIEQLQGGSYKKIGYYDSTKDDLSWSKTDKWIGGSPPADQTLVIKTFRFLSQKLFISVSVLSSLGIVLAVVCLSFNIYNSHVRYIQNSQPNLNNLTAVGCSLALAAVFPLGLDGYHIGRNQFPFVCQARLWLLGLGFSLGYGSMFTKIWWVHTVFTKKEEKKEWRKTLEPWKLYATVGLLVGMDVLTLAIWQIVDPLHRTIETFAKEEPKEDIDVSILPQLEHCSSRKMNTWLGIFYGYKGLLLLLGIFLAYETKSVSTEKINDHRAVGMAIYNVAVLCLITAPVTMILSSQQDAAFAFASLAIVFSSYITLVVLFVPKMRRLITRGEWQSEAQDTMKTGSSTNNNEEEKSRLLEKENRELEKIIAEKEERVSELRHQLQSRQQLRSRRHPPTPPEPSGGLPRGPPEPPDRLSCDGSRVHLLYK
Chain of gb1a-gb^2 heterodimer and post-synaptic GABAB receptor (O75899 42-941 partner): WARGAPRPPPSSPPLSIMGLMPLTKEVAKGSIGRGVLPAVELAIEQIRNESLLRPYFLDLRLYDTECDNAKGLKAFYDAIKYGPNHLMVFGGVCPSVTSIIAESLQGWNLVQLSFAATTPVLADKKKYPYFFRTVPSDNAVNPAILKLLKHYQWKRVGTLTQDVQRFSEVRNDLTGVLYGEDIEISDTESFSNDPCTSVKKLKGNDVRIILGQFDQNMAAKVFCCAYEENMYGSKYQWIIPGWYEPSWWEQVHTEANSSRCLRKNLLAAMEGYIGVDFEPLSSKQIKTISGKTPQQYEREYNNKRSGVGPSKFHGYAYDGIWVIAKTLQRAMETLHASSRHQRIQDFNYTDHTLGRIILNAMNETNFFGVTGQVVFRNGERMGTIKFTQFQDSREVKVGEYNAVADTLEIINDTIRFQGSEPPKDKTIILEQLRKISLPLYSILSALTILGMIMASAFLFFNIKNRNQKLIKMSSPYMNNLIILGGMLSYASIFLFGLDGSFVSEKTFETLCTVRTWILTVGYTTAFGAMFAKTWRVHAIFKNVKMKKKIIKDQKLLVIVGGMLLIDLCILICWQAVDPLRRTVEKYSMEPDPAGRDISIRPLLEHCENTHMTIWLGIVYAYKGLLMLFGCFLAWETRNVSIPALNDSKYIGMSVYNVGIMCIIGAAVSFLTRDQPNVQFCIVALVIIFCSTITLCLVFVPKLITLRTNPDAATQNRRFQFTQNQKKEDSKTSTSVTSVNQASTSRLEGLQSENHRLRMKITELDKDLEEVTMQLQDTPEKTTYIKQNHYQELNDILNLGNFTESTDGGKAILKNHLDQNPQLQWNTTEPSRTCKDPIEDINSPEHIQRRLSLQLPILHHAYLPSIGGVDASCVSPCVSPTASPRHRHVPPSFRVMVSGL

## NCC1(CC(=O)O)CCCCC1 [gabapentin, 1-(aminomethyl) cyclohexaneacetic acid]
[1]
  solubility: freely soluble
[2]
  agonist activity: selective agonist
Plasma proteins
  plasma protein binding: does not bind to plasma proteins
adults, post-dose
  time of peak plasma gabapentin concentrations: 2 to 3 h
After administration of 300 mg, dose-dependent
  absolute bioavailability: approximately 60%
In vivo
  metabolism: not metabolized
  route of elimination: eliminated via glomerular filtration
Unlike GABA
  crossing of the blood-brain barrier: able to cross the blood-brain barrier
